Test results: US10053472B2, “Silicon-based fungicides and process for producing the same” (COUNCIL OF SCIENTIFIC & INDUSTRIAL RESEARCH, priority 2014, dated 2018)
≈ marks a conversion by molar mass, not a printed value.

Key:
[1] = tested on: Alternaria solani ATCC 11785; assay: Broth microdilution antifungal susceptibility (MIC), plant pathogenic fungi; assay type: cell-based; details: ATCC11785, MIC = concentration exhibiting >90% inhibition of growth vs control, RPMI 1640, 48-72 h, read-out: Minimum Inhibitory Concentration, Alternaria solani ATCC 11785
Procedure: (§1) In vitro antifungal assays were performed by broth microdilution method according to the Clinical and Laboratory Standards Institute (CLSI, formerly NCCL) methods M27-A3 and M-38-A2. The activity was checked against plant pathogenic fungi Fusarium oxysporum CMI 113138, Aspergillus flavus ATCC 11499, Claviceps purpurea CMI 44613, Alternaria solani ATCC 11785, Ustilago maydis PRL 1549 and yeast Dekkera bruxellensis ATCC 36234. Briefly each compound stock was prepared in DMSO at concentration of 12800 μg/ml. For assay compound stocks were serially diluted two fold in microtiter plate and 4 μl of this was used for assay to get a final concentration in the range of 256-2 μg/ml. Spores of the filamentous fungi (˜2×10^4 spores/ml) and yeast cells freshly grown in YPG broth in logarithmic phase (˜2×10^3 cfu/ml) were suspended in the RPMI 1640 medium and 196 μl from these were inoculated in the wells of the plate. The microtitre plate was incubated for 48-72 h. Growth was checked by visual observation and measuring absorbance at 600 nm using microtitre plate reader.

[2] = tested on: Aspergillus flavus ATCC 11499; assay: as above; assay type: cell-based; details: ATCC11499, MIC = concentration exhibiting >90% inhibition of growth vs control, RPMI 1640, 48-72 h, read-out: Minimum Inhibitory Concentration, Aspergillus flavus ATCC 11499
Procedure: as §1

[3] = tested on: Claviceps purpurea CMI 44613; assay: as above; assay type: cell-based; details: CMI44613, MIC = concentration exhibiting >90% inhibition of growth vs control, RPMI 1640, 48-72 h, read-out: Minimum Inhibitory Concentration, Claviceps purpurea CMI 44613
Procedure: as §1

[4] = tested on: Fusarium oxysporum CMI 113138; assay: as above; assay type: cell-based; details: CMI113138, MIC = concentration exhibiting >90% inhibition of growth vs control, RPMI 1640, 48-72 h, read-out: Minimum Inhibitory Concentration, Fusarium oxysporum CMI 113138
Procedure: as §1

Ustilago maydis PRL 1549 = assay: as above; assay type: cell-based; details: Mycosarcoma maydis, PRL1549; MIC = concentration exhibiting >90% inhibition of growth vs control; RPMI 1640, 48-72 h; read-out: Minimum Inhibitory Concentration, Ustilago maydis PRL 1549
Procedure: as §1

[5] = tested on: Dekkera bruxellensis ATCC 36234; assay: Broth microdilution antifungal susceptibility (MIC), yeast; assay type: cell-based; details: Brettanomyces bruxellensis, ATCC36234; MIC = concentration exhibiting >90% inhibition of growth vs control; RPMI 1640, 48-72 h; read-out: Minimum Inhibitory Concentration, Dekkera bruxellensis ATCC 36234
Procedure: as §1

[6] = tested on: Aspergillus niger ATCC 10578; assay: Antifungal susceptibility (MIC), human fungal pathogens; assay type: cell-based; details: ATCC10578, MIC = concentration exhibiting >90% inhibition of growth vs control, read-out: Minimum Inhibitory Concentration, A. niger ATCC 10578
Procedure: as §1
(§2) Antifungal activity of the compounds was also checked against human pathogens Candida albicans ATCC 24433, C. albicans ATCC 10231, Candida glabrata NCYC 388, Candida tropicalis ATCC 750, Cryptococcus neoformans ATCC 34554, Aspergillus niger ATCC 10578, by following procedure described below.

C. albicans ATCC 10231 = assay: as above; assay type: cell-based; details: Candida albicans, ATCC10231; MIC = concentration exhibiting >90% inhibition of growth vs control; read-out: Minimum Inhibitory Concentration, C.albicans ATCC 10231
Procedure: as §1, §2

[7] = tested on: Candida albicans ATCC 24433; assay: as above; assay type: cell-based; details: ATCC24433, MIC = concentration exhibiting >90% inhibition of growth vs control, read-out: Minimum Inhibitory Concentration, C.albicans ATCC 24433
Procedure: as §1, §2

[8] = tested on: Candida glabrata NCYC 388; assay: as above; assay type: cell-based; details: Nakaseomyces glabratus, NCYC388; MIC = concentration exhibiting >90% inhibition of growth vs control; read-out: Minimum Inhibitory Concentration, C.glabrata NCYC 388
Procedure: as §1, §2

[9] = tested on: Candida tropicalis ATCC 750; assay: as above; assay type: cell-based; details: ATCC750, MIC = concentration exhibiting >90% inhibition of growth vs control, read-out: Minimum Inhibitory Concentration, C.tropicalis ATCC 750
Procedure: as §1, §2

[10] = tested on: Cryptococcus neoformans ATCC 34554; assay: as above; assay type: cell-based; details: ATCC34554, MIC = concentration exhibiting >90% inhibition of growth vs control, read-out: Minimum Inhibitory Concentration, C.neoformans ATCC 34554
Procedure: as §1, §2

C. albicans ATCC 24433 = assay: Spectrophotometric sterol analysis (effect on sterol composition); assay type: cell-based, Candida albicans; details: 0, 0.125, 0.25, 0.50, 1 and 2 μg/ml of compound, 16 h, 28° C.; heptane sterol extract scanned 220-300 nm (FIG. 1)
Procedure: FIG. 1: Spectrophotometric sterol analysis of Candida albicans ATCC 24433 exposed with different concentrations of compounds of the present invention and reference compounds.
Overnight grown culture of C. albicans ATCC 24433 was inoculated (10^6 cells/ml) in 50 ml 1% YPG broth containing 0, 0.125, 0.25, 0.50, 1, and 2 μg/ml of compounds. The flasks were incubated for 16 h with shaking at 28° C. The stationary-phase cells were harvested by centrifugation at 8000 rpm for 10 min and washed once with sterile distilled water. The net wet weight of the cell pellet was determined. To the 100 mg cell pellet, 3 ml of 25% alcoholic potassium hydroxide solution (25 g of KOH and 35 ml of sterile distilled water, brought to 100 ml with 100% ethanol), was added to each pellet and vortex mixed for 1 min. Cell suspensions were transferred to sterile borosilicate glass screw-cap tubes and were incubated in an 85° C. water bath for 1 h. Following incubation, tubes were allowed to cool to room temperature. Sterols were then extracted by addition of a mixture of 1 ml of sterile distilled water and 3 ml of n-heptane followed by vigorous vortex mixing for 3 min. The heptane layer was transferred to a clean borosilicate glass screw-cap tube and stored at −20° C. for as long as 24 h. Prior to analysis, a 20 μl aliquot of sterol extract was diluted fivefold in 100% ethanol and scanned spectrophotometrically between 220 and 300 nm on Spectrophotometer.

[11] = tested on: tested plant and human pathogens; assay: Overall antifungal activity, summary of susceptibility testing; assay type: cell-based; details: summary statement on Tables 1 and 2
Procedure: as §1, §2

Structure (SMILES) | MIC [1] | MIC [2] | MIC [3] | MIC [4] | MIC (Ustilago maydis PRL 1549) | MIC [5] | MIC [6] | MIC (C. albicans ATCC 10231) | MIC [7] | MIC [8] | MIC [9] | MIC [10] | Height of sterol absorbance peaks (ergosterol concentration) (C. albicans ATCC 24433) | Antifungal activity against the tested plant and human pathogens (in words) [11]
CCC(C)(C)c1ccc(CC(C)CN2CC[Si](C)(C)CC2)cc1 (centres unmarked) [NDS100444] | 32 µg/mL (≈ 96.5 µM) | 64 µg/mL (≈ 193 µM) | 16 µg/mL (≈ 48.2 µM) | 64 µg/mL (≈ 193 µM) | < 2 µg/mL | 4 µg/mL (≈ 12.1 µM) | 0.5 µg/mL (≈ 1.51 µM) | 0.5 µg/mL (≈ 1.51 µM) | 4 µg/mL (≈ 12.1 µM) | 8 µg/mL (≈ 24.1 µM) | 64 µg/mL (≈ 193 µM) | 2 µg/mL (≈ 6.03 µM) | dose-dependent decrease in the height of the absorbance peaks | potent antifungal activity
CC(Cc1ccc(C(C)(C)C)cc1)C(=O)NC[Si](C)(C)c1ccccc1 (centres unmarked) [NDS100582] | > 256 µg/mL | > 256 µg/mL | > 256 µg/mL | > 256 µg/mL | > 256 µg/mL | – | > 256 µg/mL | > 256 µg/mL | > 256 µg/mL | > 256 µg/mL | > 256 µg/mL | > 256 µg/mL | – | –
CC(Cc1ccc(C(C)(C)C)cc1)C(=O)N1CC[Si](C)(C)CC1 (centres unmarked) [NDS100415] | > 256 µg/mL | > 256 µg/mL | > 256 µg/mL | > 256 µg/mL | > 256 µg/mL | > 256 µg/mL | > 256 µg/mL | > 256 µg/mL | > 256 µg/mL | > 256 µg/mL | > 256 µg/mL | > 256 µg/mL | – | –
CC(Cc1ccc(C(C)(C)C)cc1)CN1C[C@@H](C)O[C@@H](C)C1 (some centres unmarked) [Fenpropimorph, reference compound] | > 256 µg/mL | > 256 µg/mL | 32 µg/mL (≈ 105 µM) | > 256 µg/mL | > 256 µg/mL | – | 1 µg/mL (≈ 3.3 µM) | 0.25 µg/mL (≈ 0.824 µM) | 0.125 µg/mL (≈ 0.412 µM) | 0.125 µg/mL (≈ 0.412 µM) | 4 µg/mL (≈ 13.2 µM) | 0.125 µg/mL (≈ 0.412 µM) | dose-dependent decrease in the height of the absorbance peaks | potent antifungal activity
CC(Cc1ccc(C(C)(C)C)cc1)CN1CCCCC1 (centres unmarked) [Fenpropidin, reference compound] | 128 µg/mL (≈ 468 µM) | 256 µg/mL (≈ 936 µM) | 32 µg/mL (≈ 117 µM) | 256 µg/mL (≈ 936 µM) | 128 µg/mL (≈ 468 µM) | 128 µg/mL (≈ 468 µM) | 0.5 µg/mL (≈ 1.83 µM) | 1 µg/mL (≈ 3.66 µM) | 0.5 µg/mL (≈ 1.83 µM) | 0.25 µg/mL (≈ 0.914 µM) | 8 µg/mL (≈ 29.3 µM) | 0.5 µg/mL (≈ 1.83 µM) | dose-dependent decrease in the height of the absorbance peaks | potent antifungal activity
CC(Cc1ccc([Si](C)(C)C)cc1)CN1CC[Si](C)(C)CC1 (centres unmarked) [NDS100579, 4,4-dimethyl-1-(2-methyl-3-(4-(trimethylsilyl)phenyl)propyl)-1,4-azasilinane] | > 256 µg/mL | > 256 µg/mL | 64 µg/mL (≈ 192 µM) | > 256 µg/mL | > 256 µg/mL | – | 0.5 µg/mL (≈ 1.5 µM) | 1 µg/mL (≈ 3 µM) | 2 µg/mL (≈ 5.99 µM) | 2 µg/mL (≈ 5.99 µM) | 64 µg/mL (≈ 192 µM) | 2 µg/mL (≈ 5.99 µM) | – | –
CC(Cc1ccc(C(C)(C)C)cc1)CN1CC[Si](C)(C)CC1 (racemic) [NDS100414, (R,S)1-(3-(4-(tert-butyl)phenyl)-2-methylpropyl)-4,4-dimethyl-1,4-azasilinane] | 32 µg/mL (≈ 101 µM) | 128 µg/mL (≈ 403 µM) | 4 µg/mL (≈ 12.6 µM) | 64 µg/mL (≈ 202 µM) | 32 µg/mL (≈ 101 µM) | 16 µg/mL (≈ 50.4 µM) | 0.5 µg/mL (≈ 1.57 µM) | 0.5 µg/mL (≈ 1.57 µM) | 4 µg/mL (≈ 12.6 µM) | 4 µg/mL (≈ 12.6 µM) | 64 µg/mL (≈ 202 µM) | 2 µg/mL (≈ 6.3 µM) | dose-dependent decrease in the height of the absorbance peaks | potent antifungal activity
